pIC50: −log10 of the molar value.
Biological target: T1, GPR84 (Homo sapiens, UniProt Q9NQS5)
T1 construct: expressed in transfected cells; membranes used
Test: GTPγS binding assay (GPR84)
Format: biochemical
Conditions: membranes from stable cell line over expressing GPR84; 3,3′ di indolylmethane at EC80
Experimental: 1.1. Cell Based Assay: GTp-γS Binding Assay.
The following assay can be used for determination of GPR84 activation.
The assay is performed in a 96 well plate where the following reagents are added. […] In a last step, 30 μL of a mixture consisting of membranes-GTPγS-SpA beads is added [mixture consists of 20 μg/well membranes derived from stable cell line over expressing GPR84 (membranes are pre-incubated with 0.1 μM GDP for 15 min at 4° C.), 0.1 nM [^35S]GTPγS (Perkin Elmer, NEG030) and 0.5 mg/well PVT-WGA SpA beads (Perkin Elmer, RPNQ0001)]. All components are diluted in assay buffer containing 20 mM HEPES pH 7.4; 5 mM MgCl2; 250 mM NaCl; 0.05% BSA; 75 ug/mL saponin. Reactions are incubated for 90 min at room temperature followed by centrifugation at 2000 rpm during 15 min. Plates are read on a Topcount reader (Perkin Elmer) immediately after centrifugation (readout time, 1 min/well).

T1 sequence (Q9NQS5 whole entry): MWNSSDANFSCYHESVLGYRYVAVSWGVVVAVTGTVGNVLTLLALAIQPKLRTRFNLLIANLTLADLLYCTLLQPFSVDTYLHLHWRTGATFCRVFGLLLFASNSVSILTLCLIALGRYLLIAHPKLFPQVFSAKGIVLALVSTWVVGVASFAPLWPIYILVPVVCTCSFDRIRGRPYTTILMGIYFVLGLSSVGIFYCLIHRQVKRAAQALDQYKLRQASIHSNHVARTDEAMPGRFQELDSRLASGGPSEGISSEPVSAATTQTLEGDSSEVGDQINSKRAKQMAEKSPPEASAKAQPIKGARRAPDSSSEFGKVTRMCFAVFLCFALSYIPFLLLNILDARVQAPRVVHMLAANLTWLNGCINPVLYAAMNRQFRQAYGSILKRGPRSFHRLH

SMILES	pIC50
CCCn1cc(-c2ccc3c(c2)CCn2c-3cc(OCC3COCCO3)nc2=O)cn1 (stereo not drawn) [Compound 101, 2-([1,4]dioxan-2-ylmethoxy)-9-(1-propyl-1H-pyrazol-4-yl)-6,7-dihydro-pyrimido[6,1-a]isoquinolin-4-one]	6.30 to 7.00
O=c1nc(OC[C@H]2COCCO2)cc2n1CCc1cc(OCc3noc(C4CC4)n3)ccc1-2 [Compound 104, 9-(5-cyclopropyl-[1,2,4]oxadiazol-3-ylmethoxy)-2-((R)-1-[1,4]dioxan-2-ylmethoxy)-6,7-dihydro-pyrimido[6,1-a]isoquinolin-4-one]	7.00 to 11.00
C#Cc1ccc2c(c1)CCn1c-2cc(OCC2COCCO2)nc1=O (stereo not drawn) [Compound 105, 2-([1,4]dioxan-2-ylmethoxy)-9-ethynyl-6,7-dihydro-pyrimido[6,1-a]isoquinolin-4-one]	6.30 to 7.00
O=c1nc(OCC2COCCO2)cc2n1CCc1cc(C#Cc3ncccn3)ccc1-2 (stereo not drawn) [Compound 106, 2-([1,4]dioxan-2-ylmethoxy)-9-pyrimidin-2-ylethynyl-6,7-dihydro-pyrimido[6,1-a]isoquinolin-4-one]	6.00 to 6.30
O=c1nc(OCC2COCCO2)cc2n1CCc1cc(C#CC(O)c3cccnc3)ccc1-2 (stereo not drawn) [Compound 108, 2-([1,4]dioxan-2-ylmethoxy)-9-(3-hydroxy-3-pyridin-3-yl-prop-1-ynyl)-6,7-dihydro-pyrimido[6,1-a]isoquinolin-4-one]	7.00 to 11.00
COC(C#Cc1ccc2c(c1)CCn1c-2cc(OCC2COCCO2)nc1=O)C(C)C (stereo not drawn) [Compound 110, 2-([1,4]dioxan-2-ylmethoxy)-9-(3-methoxy-4-methyl-pent-1-ynyl)-6,7-dihydro-pyrimido[6,1-a]isoquinolin-4-one]	6.30 to 7.00
O=c1nc(OCC2COCCO2)cc2n1CCc1cc(C#CCn3ccnc3)ccc1-2 (stereo not drawn) [Compound 113, 2-([1,4]Dioxan-2-ylmethoxy)-9-(3-imidazol-1-yl-prop-1-ynyl)-6,7-dihydro-pyrimido[6,1-a]isoquinolin-4-one]	6.30 to 7.00
C=CCOc1ccc2c(c1)CCn1c-2cc(OC[C@H]2COCCO2)nc1=O [Compound 117, 9-allyloxy-2-((R)-1-[1,4]dioxan-2-ylmethoxy)-6,7-dihydro-pyrimido[6,1-a]isoquinolin-4-one]	6.30 to 7.00
C=CCOc1ccc2c(c1)CCn1c-2cc(OC[C@@H]2COCCO2)nc1=O [Compound 118, 9-allyloxy-2-((S)-1-[1,4]dioxan-2-ylmethoxy)-6,7-dihydro-pyrimido[6,1-a]isoquinolin-4-one]	6.30 to 7.00
O=c1nc(OC[C@H]2COCCO2)cc2n1CCc1cc(COC3CCOCC3)ccc1-2 [Compound 119, 2-((R)-1-[1,4]dioxan-2-ylmethoxy)-9-(tetrahydro-pyran-4-yloxymethyl)-6,7-dihydro-pyrimido[6,1-a]isoquinolin-4-one]	6.30 to 7.00
O=c1nc(OCC2COCCO2)cc2n1CCc1cc(C#CCNCc3cccnc3)ccc1-2 (stereo not drawn) [Compound 120, 2-([1,4]dioxan-2-ylmethoxy)-9-{3-[(pyridin-3-ylmethyl)-amino]-prop-1-ynyl}-6,7-dihydro-pyrimido[6,1-a]isoquinolin-4-one]	6.30 to 7.00
O=c1nc(OC[C@@H]2COCCO2)cc2n1CCc1cc(COC3COC3)ccc1-2 [Compound 124, 2-((S)-1-[1,4]dioxan-2-ylmethoxy)-9-(oxetan-3-yloxymethyl)-6,7-dihydro-pyrimido[6,1-a]isoquinolin-4-one]	6.30 to 7.00
CC1(COCc2ccc3c(c2)CCn2c-3cc(OC[C@@H]3COCCO3)nc2=O)COC1 [Compound 125, 2-((S)-1-[1,4]dioxan-2-ylmethoxy)-9-(3-methyl-oxetan-3-ylmethoxymethyl)-6,7-dihydro-pyrimido[6,1-a]isoquinolin-4-one]	6.00 to 6.30
CC(C)C(O)CCc1ccc2c(c1)CCn1c-2cc(OC[C@@H]2COCCO2)nc1=O (stereo partly drawn) [Compound 127, 2-((S)-1-[1,4]dioxan-2-ylmethoxy)-9-(3-hydroxy-4-methyl-pentyl)-6,7-dihydro-pyrimido[6,1-a]isoquinolin-4-one]	7.00 to 11.00
CCCCC(CC)CNc1ccc2c(c1)CCn1c-2cc(OC[C@@H]2COCCO2)nc1=O (stereo partly drawn) [Compound 128, 2-((S)-1-[1,4]dioxan-2-ylmethoxy)-9-(2-ethyl-hexylamino)-6,7-dihydro-pyrimido[6,1-a]isoquinolin-4-one]	6.30 to 7.00
COCCOc1ccc2c(c1)CCn1c-2cc(OC[C@@H]2COCCO2)nc1=O [Compound 129, 2-((S)-1-[1,4]dioxan-2-ylmethoxy)-9-(2-methoxy-ethoxy)-6,7-dihydro-pyrimido[6,1-a]isoquinolin-4-one]	6.30 to 7.00
CCOCCOc1ccc2c(c1)CCn1c-2cc(OC[C@@H]2COCCO2)nc1=O [Compound 130, 2-((S)-1-[1,4]dioxan-2-ylmethoxy)-9-(2-ethoxy-ethoxy)-6,7-dihydro-pyrimido[6,1-a]isoquinolin-4-one]	6.30 to 7.00

SMILES	pIC50
O=c1nc(OC[C@@H]2COCCO2)cc2n1CCc1cc(OCC3CC3)ccc1-2 [Compound 131, 9-cyclopropylmethoxy-2-((S)-1-[1,4]dioxan-2-ylmethoxy)-6,7-dihydro-pyrimido[6,1-a]isoquinolin-4-one]	7.00 to 11.00
O=c1nc(OC[C@@H]2COCCO2)cc2n1CCc1cc(OCCF)ccc1-2 [Compound 132, 2-((S)-1-[1,4]dioxan-2-ylmethoxy)-9-(2-fluoro-ethoxy)-6,7-dihydro-pyrimido[6,1-a]isoquinolin-4-one]	6.00 to 6.30
CCOCCOCC#Cc1ccc2c(c1)CCn1c-2cc(OC[C@@H]2COCCO2)nc1=O [Compound 134, 2-((S)-1-[1,4]dioxan-2-ylmethoxy)-9-[3-(2-ethoxy-ethoxy)-prop-1-ynyl]-6,7-dihydro-pyrimido[6,1-a]isoquinolin-4-one]	6.30 to 7.00
O=c1nc(OC[C@@H]2COCCO2)cc2n1CCc1cc(C#CCOCCF)ccc1-2 [Compound 135, 2-((S)-1-[1,4]dioxan-2-ylmethoxy)-9-[3-(2-fluoro-ethoxy)-prop-1-ynyl]-6,7-dihydro-pyrimido[6,1-a]isoquinolin-4-one]	6.30 to 7.00
CC(C)(C)COCc1ccc2c(c1)CCn1c-2cc(OC[C@@H]2COCCO2)nc1=O [Compound 136, 9-(2,2-dimethyl-propoxymethyl)-2-((S)-1-[1,4]dioxan-2-ylmethoxy)-6,7-dihydro-pyrimido[6,1-a]isoquinolin-4-one]	7.00 to 11.00
O=c1nc(OC[C@@H]2COCCO2)cc2n1CCc1cc(COC3CCCCC3)ccc1-2 [Compound 137, 9-cyclohexyloxymethyl-2-((S)-1-[1,4]dioxan-2-ylmethoxy)-6,7-dihydro-pyrimido[6,1-a]isoquinolin-4-one]	7.00 to 11.00
O=c1nc(OC[C@@H]2COCCO2)cc2n1CCc1cc(COCC3CC3)ccc1-2 [Compound 138, 9-cyclopropylmethoxymethyl-2-((S)-1-[1,4]dioxan-2-ylmethoxy)-6,7-dihydro-pyrimido[6,1-a]isoquinolin-4-one]	7.00 to 11.00
CC(C)(C)CCCOc1ccc2c(c1)CCn1c-2cc(OC[C@@H]2COCCO2)nc1=O [Compound 141, 9-(4,4-dimethyl-pentyloxy)-2-((S)-1-[1,4]dioxan-2-ylmethoxy)-6,7-dihydro-pyrimido[6,1-a]isoquinolin-4-one]	6.30 to 7.00
COC(CCc1ccc2c(c1)CCn1c-2cc(OC[C@@H]2COCCO2)nc1=O)C(C)C (stereo partly drawn) [Compound 142, 2-((S)-1-[1,4]dioxan-2-ylmethoxy)-9-(3-methoxy-4-methyl-pentyl)-6,7-dihydro-pyrimido[6,1-a]isoquinolin-4-one]	7.00 to 11.00
O=c1nc(OC[C@@H]2COCCO2)cc2n1CCc1cc(NC3CCCCC3)ccc1-2 [Compound 145, 9-cyclohexylamino-2-((S)-1-[1,4]dioxan-2-ylmethoxy)-6,7-dihydro-pyrimido[6,1-a]isoquinolin-4-one]	6.30 to 7.00
CC(C)(C)C(O)CCc1ccc2c(c1)CCn1c-2cc(OC[C@@H]2COCCO2)nc1=O (stereo partly drawn) [Compound 146, 2-((S)-1-[1,4]dioxan-2-ylmethoxy)-9-(3-hydroxy-4,4-dimethyl-pentyl)-6,7-dihydro-pyrimido[6,1-a]isoquinolin-4-one]	7.00 to 11.00
COC(C)CCc1ccc2c(c1)CCn1c-2cc(OC[C@@H]2COCCO2)nc1=O (stereo partly drawn) [Compound 148, 2-((S)-1-[1,4]dioxan-2-ylmethoxy)-9-(3-methoxy-butyl)-6,7-dihydro-pyrimido[6,1-a]isoquinolin-4-one]	7.00 to 11.00
O=c1nc(OC[C@@H]2COCCO2)cc2n1CCc1cc(CCCCO)ccc1-2 [Compound 151, 2-((S)-1-[1,4]dioxan-2-ylmethoxy)-9-(4-hydroxy-butyl)-6,7-dihydro-pyrimido[6,1-a]isoquinolin-4-one]	6.30 to 7.00
CN(c1ccc2c(c1)CCn1c-2cc(OC[C@@H]2COCCO2)nc1=O)C1CCCCC1 [Compound 152, 9-(cyclohexyl-methyl-amino)-2-((S)-1-[1,4]dioxan-2-ylmethoxy)-6,7-dihydro-pyrimido[6,1-a]isoquinolin-4-one]	6.00 to 6.30
O=c1nc(OC[C@@H]2COCCO2)cc2n1CCc1cc(NCC3CCCCC3)ccc1-2 [Compound 153, 9-(cyclohexylmethyl-amino)-2-((S)-1-[1,4]dioxan-2-ylmethoxy)-6,7-dihydro-pyrimido[6,1-a]isoquinolin-4-one]	6.30 to 7.00
O=c1nc(OC[C@@H]2COCCO2)cc2n1CCc1cc(NCC3CCOCC3)ccc1-2 [Compound 154, 2-((S)-1-[1,4]dioxan-2-ylmethoxy)-9-[(tetrahydro-pyran-4-ylmethyl)-amino]-6,7-dihydro-pyrimido[6,1-a]isoquinolin-4-one]	6.00 to 6.30

Source: patent publication US10047083B2, “Dihydropyrimidinoisoquinolinones and pharmaceutical compositions thereof for the treatment of inflammatory disorders” (GALAPAGOS NV, priority 2011, dated 2018)
